pEC50: −log10 of the molar value.

In general, pEC50 refers to the negative decadic logarithm of the EC50, by convention in mol/L. Lower therefore signals a large EC50.

The subject of the experiment is SMN2-linked luciferase-reporter gene construct. Put plainly: SMN splice reporter assay (SMN2-linked luciferase reporter, Example 10). The class given is cell-based. Particulars: average; for pEC50: SMN2-linked luciferase reporter; for maximal fold induction: read-out: SMN Splice Reporter Assay (Example 10) Avg MaxFold Increase. The method in brief: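 Values are fold-increase in luciferase signal relative to baseline cells without compound. The cervical carcinoma line used holds a fusion of alternatively spliced SMN2 sequence and luciferase. Readable frame, and thus signal, arises only with exon 7-including splicing.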
(Reporter assays use an easily measured gene product as a stand-in for the process of interest.)

Where [1] appears, read: maximum fold increase of reporter signal.

Compound `C/C=C/c1ccc2c(c1)C(=O)N(c1ccc(C(C)C(=O)O)cc1)C2` (stereo not shown) [ALB-114086] gave a pEC50 of 7.06. The maximal fold induction under setting [1] was found to be 1.99.

`C/C=C(\C)c1ccc2c(c1)C(=O)N(c1ccc(C(C)C(=O)O)cc1)C2` (stereo not shown) [ALB-114087] gave a pEC50 of 6.65. Besides, the maximal fold induction under setting [1] is 1.88.

As for `CCC(C)c1ccc2c(c1)C(=O)N(c1ccc(C(C)C(=O)O)cc1)C2` (stereo not shown) [ALB-114088], the pEC50 was 7.11. The maximal fold induction under setting [1] stood at 2.19.

In the case of `C/C=C\c1ccc2c(c1)C(=O)N(c1ccc(C(C)COC)cc1)C2` (stereo not shown) [ALB-114089], the pEC50 is 6.04. Further, the maximal fold induction under setting [1] was found to be 1.55.

As for `CC(CF)c1ccc(N2Cc3ccccc3C2=O)cc1` (stereo not shown) [ALB-114090], the pEC50 was 6.67. The maximal fold induction under setting [1] is 1.47.

As to `CCCc1ccc2c(c1)C(=O)N(c1ccc(C(C)COC)cc1)C2` (stereo not shown) [ALB-114091], the pEC50 is 6.16. Moreover, the maximal fold induction under setting [1] worked out at 1.46.

In the case of `COc1cc2c(cc1OC)C(=O)N(c1ccc(C(C)C(=O)O)cc1)C2` (stereo not shown) [ALB-114437], the maximal fold induction under setting [1] stood at 1.2.

For `CC(C(=O)O)c1ccc(N2Cc3ccc(CN4CCOCC4)cc3C2=O)cc1` (stereo not shown) [ALB-114438], the pEC50 is 5.72. Also, the maximal fold induction under setting [1] is 1.27.

Regarding `COCc1ccc2c(c1)C(=O)N(c1ccc(C(C)C(=O)O)cc1)C2` (stereo not shown) [ALB-114439], the pEC50 was 7.28. In addition, the maximal fold induction under setting [1] was found to be 1.51.

Compound `CC(CN)c1ccc(N2Cc3ccccc3C2=O)cc1` (stereo not shown) [ALB-114604] had a pEC50 of 6.52. Moreover, the maximal fold induction under setting [1] is 1.39.

In turn, `COc1ccc2c(c1)C(=O)N(c1ccc(C(C)CO)cc1)C2` (stereo not shown) [ALB-114606] had a negative logarithm of the EC50 (pEC50) of 6.74. In addition, under setting [1], the maximal fold induction was determined as 1.31.

`CC(C(=O)O)c1ccc(N2Cc3ccc(C4CCCC4)cc3C2=O)cc1` (stereo not shown) [ALB-114607] gave a pEC50 of 7.46. Besides, the maximal fold induction under setting [1] turned out to be 1.51.

For the compound `CC(C(=O)O)c1ccc(N2Cc3ccc(CN(C)C)cc3C2=O)cc1` (stereo not shown) [ALB-114608], the maximal fold induction under setting [1] is 1.23.

Take `CC(C(=O)O)c1ccc(N2Cc3ccc(N4CCOCC4)cc3C2=O)cc1` (stereo not shown) [ALB-114738a]: under setting [1], the maximal fold induction was 1.08.

Turning to `CC(C(=O)O)c1ccc(N2Cc3ccc(N4CCCC4)cc3C2=O)cc1` (stereo not shown) [ALB-114739a], the pEC50 was 7.24. The maximal fold induction under setting [1] came to 1.55.

On to `CC(CF)c1ccc(N2Cc3ccc(C4CCCC4)cc3C2=O)cc1` (stereo not shown) [ALB-114740], for which the pEC50 is 6.09. Besides, the maximal fold induction under setting [1] stood at 1.22.

In the case of `CC(C)OCc1ccc2c(c1)C(=O)N(c1ccc(C(C)C(=O)O)cc1)C2` (stereo not shown) [ALB-114741], the maximal fold induction under setting [1] worked out at 1.67.

Consider `CCOCc1ccc2c(c1)C(=O)N(c1ccc(C(C)C(=O)O)cc1)C2` (stereo not shown) [ALB-114742], for which the pEC50 is 7.38. Further, under setting [1], the maximal fold induction stood at 1.58.

The compound `CCOCc1ccc2c(c1)C(=O)N(c1ccc(C(C)CO)cc1)C2` (stereo not shown) [ALB-114743] had a pEC50 of 6.35. The maximal fold induction under setting [1] was found to be 1.37.

On to `CCOCC(C)c1ccc(N2Cc3ccccc3C2=O)cc1` (stereo not shown) [ALB-114744], for which, under setting [1], the maximal fold induction amounted to 1.18.

In turn, `CC(C(=O)O)c1ccc(N2Cc3cc4c(cc3C2=O)OCO4)cc1` (stereo not shown) [ALB-114782] had a pEC50 of 7.09. The maximal fold induction under setting [1] was 1.65.

As to `COCC(C)c1ccc(N2Cc3ccc(C4CCCC4)cc3C2=O)cc1` (stereo not shown) [ALB-114845], the maximal fold induction under setting [1] worked out at 1.15.

With `CCOCc1ccc2c(c1)C(=O)N(c1ccc(C(C)COC)cc1)C2` (stereo not shown) [ALB-114846], the pEC50 is 6.31. Also, the maximal fold induction under setting [1] worked out at 1.3.

As to `COCC(C)c1ccc(N2Cc3ccc(COC(C)C)cc3C2=O)cc1` (stereo not shown) [ALB-114847], the maximal fold induction under setting [1] is 1.23.

`Cc1ccc(N2Cc3ccccc3C2=O)cc1` [ALB-114898]: the pEC50 was 6.52. The maximal fold induction under setting [1] came to 1.36.

On to `CCCOc1ccc2c(c1)C(=O)N(c1ccc(C(C)C(=O)O)cc1)C2` (stereo not shown) [ALB-114934], for which the pEC50 is 7.48. For the same compound, the maximal fold induction under setting [1] was determined as 1.87.

As for `CC(C)OCC(C)c1ccc(N2Cc3ccccc3C2=O)cc1` (stereo not shown) [ALB-114935], the pEC50 is 6.01. In addition, under setting [1], the maximal fold induction was 1.26.

In turn, `CC(C)(C)c1ccc(N2Cc3ccccc3C2=O)cc1` [ALB-114936] had a pEC50 of 6.88. Further, the maximal fold induction under setting [1] worked out at 1.41.

`CCCc1ccc2c(c1)C(=O)N(c1ccc(C(C)C)cc1)C2` [ALB-114939] had a pEC50 of 6.53. Under setting [1], the maximal fold induction was found to be 1.43.

Take `CCc1ccc(N2Cc3ccccc3C2=O)cc1` [ALB-114940]: the pEC50 is 7.01. Also, under setting [1], the maximal fold induction is 1.36.

With `COCc1ccc2c(c1)C(=O)N(c1ccc(C(C)CO)cc1)C2` (stereo not shown) [ALB-114941], the pEC50 is 6.52. Also, under setting [1], the maximal fold induction was determined as 1.35.

In the case of `COCc1ccc2c(c1)C(=O)N(c1ccc(C(C)COC)cc1)C2` (stereo not shown) [ALB-114942], the pEC50 is 6.66. The maximal fold induction under setting [1] was 1.33.

Compound `COCC(C)c1ccc(N2Cc3cc(OC)c(OC)cc3C2=O)cc1` (stereo not shown) [ALB-114943] showed a pEC50 of 5.88. Further, the maximal fold induction under setting [1] is 1.35.

Turning to `O=C1c2ccccc2CN1c1ccc(C2CCCC2)cc1` [ALB-115068], the pEC50 is 7.28. The maximal fold induction under setting [1] was found to be 1.41.

Turning to `COCCOc1ccc2c(c1)C(=O)N(c1ccc(C(C)C(=O)O)cc1)C2` (stereo not shown) [ALB-115071], the pEC50 was 6.08. Moreover, under setting [1], the maximal fold induction is 1.39.

`COCC(C)c1ccc(N2Cc3ccc(C)cc3C2=O)cc1` (stereo not shown) [ALB-115072] had a pEC50 of 7.49. Under setting [1], the “SMN Splice Reporter Assay (Example 10) Avg MaxFold Increase” value was 1.28.

Consider `COCCc1ccc(N2Cc3ccccc3C2=O)cc1` [ALB-115073], for which the maximal fold induction under setting [1] is 1.19.

As for `CCc1ccc(N2Cc3ccc(OC)cc3C2=O)cc1` [ALB-115085], the pEC50 was 7.24. Besides, the maximal fold induction under setting [1] came out at 1.47.

`CCCCc1ccc2c(c1)C(=O)N(c1ccc(C(C)C(=O)O)cc1)C2` (stereo not shown) [ALB-115086]: the pEC50 is 7.21. Under setting [1], the maximal fold induction was found to be 2.06.

`CC(C(=O)O)c1ccc(N2Cc3ccc(I)cc3C2=O)cc1` (stereo not shown) [ALB-115216]: the pEC50 is 7.12. The maximal fold induction under setting [1] stood at 1.87.

Take `COCCc1ccc(N2Cc3ccc(OC)cc3C2=O)cc1` [ALB-115217]: the maximal fold induction under setting [1] amounted to 1.26.

On to `C/C=C/c1ccc2c(c1)C(=O)N(c1ccc(C(C)C)cc1)C2` [ALB-115319], for which the maximal fold induction under setting [1] came out at 1.24.

Consider `COCc1ccc(N2Cc3ccccc3C2=O)cc1` [ALB-115323], for which the maximal fold induction under setting [1] came out at 1.1.

Regarding `CC(C)COc1ccc2c(c1)C(=O)N(c1ccc(C(C)C(=O)O)cc1)C2` (stereo not shown) [ALB-115325], the pEC50 was 7.13. In addition, the maximal fold induction under setting [1] is 1.57.

Regarding `CC(C(=O)O)c1ccc(N2Cc3ccc(OCc4ccccc4)cc3C2=O)cc1` (stereo not shown) [ALB-115326], under setting [1], the maximal fold induction was determined as 1.24.

In turn, `C=Cc1ccc2c(c1)C(=O)N(c1ccc(C(C)COC)cc1)C2` (stereo not shown) [ALB-115327] gave a pEC50 of 7.12. Further, under setting [1], the maximal fold induction was found to be 1.43.

Take `CCc1ccc2c(c1)C(=O)N(c1ccc(C(C)COC)cc1)C2` (stereo not shown) [ALB-115328]: the pEC50 was 6.53. For the same compound, the maximal fold induction under setting [1] came to 1.5.

For the compound `COc1ccc2c(c1)C(=O)N(c1ccc(C3CCCC3)cc1)C2` [ALB-115422], the negative-log EC50 (pEC50) was 6.40. The maximal fold induction under setting [1] is 1.27.

As for `O=C1c2ccccc2CN1c1ccc(C2CCCCC2)cc1` [ALB-115423], the pEC50 is 7.54. Further, under setting [1], the maximal fold induction was 1.21.

Turning to `CC(C)=Cc1ccc2c(c1)C(=O)N(c1ccc(C(C)C(=O)O)cc1)C2` (stereo not shown) [ALB-115425], the pEC50 is 7.74. The maximal fold induction under setting [1] came to 1.95.

`CC(C)Cc1ccc2c(c1)C(=O)N(c1ccc(C(C)C(=O)O)cc1)C2` (stereo not shown) [ALB-115426] showed a pEC50 of 7.89. Moreover, under setting [1], the maximal fold induction worked out at 1.96.

On to `COCC(C)(C)c1ccc(N2Cc3ccccc3C2=O)cc1` [ALB-115427], for which the maximal fold induction under setting [1] was 1.31.

Take `COc1ccc2c(c1)C(=O)N(c1ccc(C3CCCCC3)cc1)C2` [ALB-115496]: the pEC50 was 6.25. Moreover, the maximal fold induction under setting [1] is 1.39.

Compound `CCCc1ccc(N2Cc3ccccc3C2=O)cc1` [ALB-115499] showed a pEC50 of 7.08. Besides, under setting [1], the maximal fold induction was found to be 1.27.

Take `CC(C(=O)O)c1ccc(N2Cc3ccc(OCC4CC4)cc3C2=O)cc1` (stereo not shown) [ALB-115500]: the pEC50 is 6.94. Further, under setting [1], the maximal fold induction came out at 1.54.

`CC(C(=O)O)c1ccc(N2Cc3ccc(/C=C/C(F)(F)F)cc3C2=O)cc1` (stereo not shown) [ALB-115501] had a pEC50 of 5.63. Moreover, the maximal fold induction under setting [1] turned out to be 1.39.

`CC(C)(C)c1ccc(N2Cc3ccc(Br)cc3C2=O)cc1` [ALB-115583]: the pEC50 was 6.74. The maximal fold induction under setting [1] was determined as 1.37.

Compound `CC(C(=O)O)c1ccc(N2Cc3ccc(OCC4CCC4)cc3C2=O)cc1` (stereo not shown) [ALB-115585] had a pEC50 of 7.08. The maximal fold induction under setting [1] stood at 1.48.

Regarding `CC(C(=O)O)c1ccc(N2Cc3ccc(CCC(F)(F)F)cc3C2=O)cc1` (stereo not shown) [ALB-115588], the pEC50 is 6.45. Besides, the maximal fold induction under setting [1] is 1.7.

Take `CCCc1ccc(N2Cc3ccc(Br)cc3C2=O)cc1` [ALB-115589]: the pEC50 is 6.84. Further, the maximal fold induction under setting [1] worked out at 1.39.

As for `O=C1c2cc(Br)ccc2CN1c1ccc(C2CCCCC2)cc1` [ALB-115590], under setting [1], the maximal fold induction turned out to be 1.11.

`COCC(C)(C)c1ccc(N2Cc3ccc(OC)cc3C2=O)cc1` [ALB-115706] showed a pEC50 of 6.18. The maximal fold induction under setting [1] was 1.26.

As for `CCCc1ccc(N2Cc3ccc(OC)cc3C2=O)cc1` [ALB-115708], the maximal fold induction under setting [1] was 1.1.

For the compound `Cc1ccc(N2Cc3ccccc3C2=O)cc1C` [ALB-115711], the negative logarithm of the EC50 (pEC50) is 6.56. Also, the maximal fold induction under setting [1] stood at 1.33.

In turn, `CCc1ccc2c(c1)C(=O)N(c1ccc(C(C)C)cc1)C2` [ALB-115713] had a pEC50 of 7.21. Moreover, the maximal fold induction under setting [1] came to 1.37.

The record behind these values is US8110681B2, “Compounds for the treatment of spinal muscular atrophy and other uses” (The United States of America as represented by the …, priority 2006, dated 2012).
